Drawing on patent US20210070748A1, “INHIBITORS OF BRUTONS TYROSINE KINASE” (Pharmacyclics LLC, priority 2015, published 2021), this text covers IC50 for 14 compounds.

Common to all, as to format: biochemical
One assay has as its target T1, BTK-WT (Homo sapiens, UniProt Q06187).
T1 construct: purified from insect cells as a full-length construct containing an N-terminal 6X-His tag; His6 (N); made in house; host or cells: insect cells (baculovirus Sf21 in Method B)
Put plainly: Btk in vitro inhibitory activity (one of Method A TR-FRET, Method B electrophoretic mobility shift, Method C radiometric filter binding). The settings on record: D-compounds panel data; read-out: IC50 BTK-WT. In general terms: Mobility shift assays separate free from complexed probe on a gel.

The target of the next assay is SRC (Homo sapiens, UniProt P12931). Put plainly: Inhibition of a panel of kinases, in vitro HotSpot kinase assay: SRC. Particulars: D-compounds panel data; 1 μM ATP. On the procedure:
(§1) The degree of inhibition of a panel of kinases is determined using the in vitro HotSpot kinase assay (purified enzymes, ^33P-ATP, an appropriate substrate and 1 μM ATP).

For the next assay, the target named is T2, ITK (Homo sapiens, UniProt Q08881).
T2 sequence (Q08881 1-620): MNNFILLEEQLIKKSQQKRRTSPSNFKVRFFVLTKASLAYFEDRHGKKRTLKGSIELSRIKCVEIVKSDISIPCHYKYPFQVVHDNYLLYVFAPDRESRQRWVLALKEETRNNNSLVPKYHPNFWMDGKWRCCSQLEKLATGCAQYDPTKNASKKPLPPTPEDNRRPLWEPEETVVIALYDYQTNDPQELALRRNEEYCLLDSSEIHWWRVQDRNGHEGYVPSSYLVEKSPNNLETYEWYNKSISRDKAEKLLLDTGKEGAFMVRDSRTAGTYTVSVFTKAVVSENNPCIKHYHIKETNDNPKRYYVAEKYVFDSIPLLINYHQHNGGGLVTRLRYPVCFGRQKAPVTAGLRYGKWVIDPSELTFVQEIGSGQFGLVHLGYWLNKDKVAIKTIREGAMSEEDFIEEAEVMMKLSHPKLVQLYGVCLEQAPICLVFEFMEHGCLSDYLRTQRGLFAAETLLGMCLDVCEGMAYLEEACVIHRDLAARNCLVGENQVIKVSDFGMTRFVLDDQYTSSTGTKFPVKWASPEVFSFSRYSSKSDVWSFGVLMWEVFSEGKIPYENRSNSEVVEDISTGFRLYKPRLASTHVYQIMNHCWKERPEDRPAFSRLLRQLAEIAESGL
Put plainly: Inhibition of a panel of kinases, in vitro HotSpot kinase assay: ITK. The settings on record: D-compounds panel data; 1 μM ATP. The procedure: as §1

The next assay concerns the target EGFR (Homo sapiens, UniProt P00533). Put plainly: Inhibition of a panel of kinases, in vitro HotSpot kinase assay: EGFR. The settings on record: D-compounds panel data; 1 μM ATP. On the procedure:
as §1

A further assay deals with LCK (Homo sapiens, UniProt P06239). Put plainly: Inhibition of a panel of kinases, in vitro HotSpot kinase assay: LCK. The settings on record: D-compounds panel data; 1 μM ATP; read-out: IC50 LCK.
LCK, sequence (P06239 whole entry): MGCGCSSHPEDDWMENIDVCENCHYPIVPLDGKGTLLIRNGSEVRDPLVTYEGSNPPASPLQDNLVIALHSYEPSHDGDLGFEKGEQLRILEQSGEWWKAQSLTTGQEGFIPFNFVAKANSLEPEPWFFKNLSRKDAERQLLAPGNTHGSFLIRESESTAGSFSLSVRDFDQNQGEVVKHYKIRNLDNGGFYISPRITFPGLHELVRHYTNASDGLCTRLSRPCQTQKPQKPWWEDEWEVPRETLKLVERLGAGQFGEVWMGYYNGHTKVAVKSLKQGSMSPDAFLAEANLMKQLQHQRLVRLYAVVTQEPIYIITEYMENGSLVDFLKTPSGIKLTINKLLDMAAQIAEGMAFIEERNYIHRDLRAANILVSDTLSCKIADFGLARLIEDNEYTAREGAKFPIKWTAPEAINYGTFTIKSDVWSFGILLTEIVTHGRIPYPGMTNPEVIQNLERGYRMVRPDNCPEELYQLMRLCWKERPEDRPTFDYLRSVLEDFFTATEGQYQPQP

EGFR, sequence (P00533 25-1210): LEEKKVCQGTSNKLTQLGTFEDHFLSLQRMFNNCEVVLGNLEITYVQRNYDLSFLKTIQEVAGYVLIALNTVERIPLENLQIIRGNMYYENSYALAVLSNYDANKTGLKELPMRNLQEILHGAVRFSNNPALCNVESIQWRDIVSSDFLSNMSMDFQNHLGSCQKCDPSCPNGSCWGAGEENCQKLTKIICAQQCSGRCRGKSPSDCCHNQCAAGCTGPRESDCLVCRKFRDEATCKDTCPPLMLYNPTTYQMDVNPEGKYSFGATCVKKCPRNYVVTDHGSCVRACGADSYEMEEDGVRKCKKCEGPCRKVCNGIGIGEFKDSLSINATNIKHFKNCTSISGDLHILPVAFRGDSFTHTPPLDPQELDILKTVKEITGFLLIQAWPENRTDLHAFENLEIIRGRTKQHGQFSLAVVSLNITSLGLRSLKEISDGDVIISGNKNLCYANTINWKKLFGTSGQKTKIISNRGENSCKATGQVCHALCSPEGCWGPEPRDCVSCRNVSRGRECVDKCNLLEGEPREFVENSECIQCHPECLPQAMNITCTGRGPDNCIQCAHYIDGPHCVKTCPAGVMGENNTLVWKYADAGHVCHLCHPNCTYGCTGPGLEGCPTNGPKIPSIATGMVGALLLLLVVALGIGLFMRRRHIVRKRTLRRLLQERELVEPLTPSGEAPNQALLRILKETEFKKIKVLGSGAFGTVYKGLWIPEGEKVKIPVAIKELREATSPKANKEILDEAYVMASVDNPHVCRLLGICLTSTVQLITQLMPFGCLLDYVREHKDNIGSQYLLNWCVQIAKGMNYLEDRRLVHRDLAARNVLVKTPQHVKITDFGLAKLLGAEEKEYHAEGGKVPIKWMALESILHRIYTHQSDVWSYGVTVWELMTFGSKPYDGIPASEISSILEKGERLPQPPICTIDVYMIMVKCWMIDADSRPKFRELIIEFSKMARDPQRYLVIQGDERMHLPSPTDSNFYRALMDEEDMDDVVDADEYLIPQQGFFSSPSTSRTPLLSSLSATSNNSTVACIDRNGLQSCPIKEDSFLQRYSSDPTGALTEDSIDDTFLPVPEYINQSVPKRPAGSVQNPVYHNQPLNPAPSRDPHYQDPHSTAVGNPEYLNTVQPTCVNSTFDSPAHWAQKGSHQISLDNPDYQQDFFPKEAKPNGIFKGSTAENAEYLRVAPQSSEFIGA
SRC, sequence (P12931 whole entry): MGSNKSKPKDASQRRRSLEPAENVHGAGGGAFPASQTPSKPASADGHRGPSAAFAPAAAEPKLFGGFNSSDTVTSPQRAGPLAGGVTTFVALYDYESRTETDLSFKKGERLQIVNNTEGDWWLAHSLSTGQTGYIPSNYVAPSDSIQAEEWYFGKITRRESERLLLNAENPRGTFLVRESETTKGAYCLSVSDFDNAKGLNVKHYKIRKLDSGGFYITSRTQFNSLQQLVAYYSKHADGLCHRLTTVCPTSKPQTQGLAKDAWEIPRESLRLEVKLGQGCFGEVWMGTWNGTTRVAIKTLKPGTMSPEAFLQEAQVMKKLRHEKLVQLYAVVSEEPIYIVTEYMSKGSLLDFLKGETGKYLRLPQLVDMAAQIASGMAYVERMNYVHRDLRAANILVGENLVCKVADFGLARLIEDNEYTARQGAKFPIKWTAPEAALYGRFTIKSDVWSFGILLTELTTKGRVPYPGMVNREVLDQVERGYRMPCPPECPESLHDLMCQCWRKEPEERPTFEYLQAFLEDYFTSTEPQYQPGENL
T1 sequence (Q06187 whole entry): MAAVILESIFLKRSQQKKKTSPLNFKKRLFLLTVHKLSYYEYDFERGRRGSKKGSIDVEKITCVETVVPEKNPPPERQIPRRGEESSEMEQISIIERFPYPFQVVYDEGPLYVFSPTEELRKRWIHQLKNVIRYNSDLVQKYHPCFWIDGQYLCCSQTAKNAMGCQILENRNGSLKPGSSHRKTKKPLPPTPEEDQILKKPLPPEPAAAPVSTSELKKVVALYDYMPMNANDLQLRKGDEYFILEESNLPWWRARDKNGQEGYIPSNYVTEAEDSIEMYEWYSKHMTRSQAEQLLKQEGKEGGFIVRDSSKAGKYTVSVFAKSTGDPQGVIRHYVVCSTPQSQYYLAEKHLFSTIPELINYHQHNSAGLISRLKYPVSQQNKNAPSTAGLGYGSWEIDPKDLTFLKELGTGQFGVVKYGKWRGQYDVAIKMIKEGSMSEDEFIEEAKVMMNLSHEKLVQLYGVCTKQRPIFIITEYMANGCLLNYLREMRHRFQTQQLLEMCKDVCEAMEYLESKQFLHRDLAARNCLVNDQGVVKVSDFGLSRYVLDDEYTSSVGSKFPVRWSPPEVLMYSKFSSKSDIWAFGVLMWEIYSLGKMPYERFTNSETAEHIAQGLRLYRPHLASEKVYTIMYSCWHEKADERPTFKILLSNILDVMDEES

Usually IC50 stands for the midpoint of a concentration-inhibition curve. Consider `CC(C)c1ccc(C(=O)N[C@@H]2CCCN(c3cnc(C(N)=O)c(Nc4cnn(C)c4)n3)[C@@H]2C)cc1` [Example D-197, 3-[(1-methyl-1H-pyrazol-4-yl)amino]-5-[(2R,3R)-2-methyl-3-[4-(propan-2-yl)benzamido]piperidin-1-yl]pyrazine-2-carboxamide], for which the IC50 was not above 10 nM on BTK-WT; 100 to 1000 nM at SRC; 100 to 1000 nM at ITK; 1000 to 10000 nM against EGFR; 100 to 1000 nM on LCK.
Turning to `C[C@@H]1[C@H](NC(=O)c2ccc(C3CC3)cc2)CCCN1c1cnc(C(N)=O)c(Nc2cnn(CCN(C)C)c2)n1` [Example D-187, 5-[(2R,3R)-3-(4-cyclopropylbenzamido)-2-methylpiperidin-1-yl]-3-({1-[2-(dimethylamino)ethyl]-1H-pyrazol-4-yl}amino)pyrazine-2-carboxamide], the half-maximal inhibitory concentration (IC50) on BTK-WT lay within 10 to 100 nM; on SRC, 100 to 1000 nM; against ITK it was 1000 to 10000 nM; against EGFR, 1000 to 10000 nM; at LCK, 100 to 1000 nM.
Consider `C[C@@H]1[C@H](NC(=O)c2ccc(S(F)(F)(F)(F)F)cc2)CCCN1c1cnc(C(N)=O)c(Nc2cnn(C)c2)n1` [Example D-230, 3-[(1-methyl-1H-pyrazol-4-yl)amino]-5-[(2R,3R)-2-methyl-3-[4-(pentafluoro-λ^6-sulfanyl)benzamido]piperidin-1-yl]pyrazine-2-carboxamide], for which the IC50 was not above 10 nM on BTK-WT; 100 to 1000 nM on SRC; 1000 to 10000 nM against ITK; 1000 to 10000 nM on EGFR; 100 to 1000 nM at LCK.
For `C[C@@H]1[C@H](NC(=O)c2ccc(C3CC3)nc2)CCCN1c1cnc(C(N)=O)c(Nc2cnn(C)c2)n1` [Example D-18, 5-[(2R,3R)-3-(6-cyclopropylpyridine-3-amido)-2-methylpiperidin-1-yl]-3-[(1-methyl-1H-pyrazol-4-yl)amino]pyrazine-2-carboxamide], the IC50 is not above 10 nM on BTK-WT; 10 to 100 nM against SRC; 100 to 1000 nM against ITK; 1000 to 10000 nM at EGFR; 100 to 1000 nM at LCK.
In the case of `Cc1cc(Nc2nc(N3CCC[C@@H](c4ncc(-c5ccc(C6CC6)cc5)[nH]4)[C@H]3C)cnc2C(N)=O)sn1` [Example D-186, 5-[(2R,3R)-3-[5-(4-cyclopropylphenyl)-1H-imidazol-2-yl]-2-methylpiperidin-1-yl]-3-[(3-methyl-1,2-thiazol-5-yl)amino]pyrazine-2-carboxamide], the 50% inhibitory concentration (IC50) on BTK-WT is 10 to 100 nM; at SRC it was 100 to 1000 nM; against ITK, more than 10000 nM; at EGFR it was 1000 to 10000 nM; at LCK it was 1000 to 10000 nM.
As to `C[C@@H]1[C@H](NC(=O)c2ccc(C3CC3)cc2)CCCN1c1cnc(C(N)=O)c(Nc2ccc(OC3CCN4CCCC4C3)cc2)n1` (stereo partly drawn) [Example D-211, 5-[(2R,3R)-3-(4-cyclopropylbenzamido)-2-methylpiperidin-1-yl]-3-{[4-(octahydroindolizin-7-yloxy)phenyl]amino}pyrazine-2-carboxamide], the IC50 on BTK-WT was not above 10 nM; at SRC it was 10 to 100 nM; against ITK it was 100 to 1000 nM; against EGFR it was 1000 to 10000 nM; on LCK it was 10 to 100 nM.
For the compound `Cn1cc(Nc2nc(N3CCC[C@@H](NC(=O)c4ccc(C5CC5)cc4)C3)cnc2C(N)=O)cn1` [Example D-191, 5-[(3R)-3-(4-cyclopropylbenzamido)piperidin-1-yl]-3-[(1-methyl-1H-pyrazol-4-yl)amino]pyrazine-2-carboxamide], the IC50 on BTK-WT was 10 to 100 nM; against SRC, 100 to 1000 nM; at ITK, 1000 to 10000 nM; against EGFR it was more than 10000 nM; on LCK, 100 to 1000 nM.
On to `C[C@@H]1[C@H](NC(=O)c2ccc(C3CC3)cc2F)CCCN1c1cnc(C(N)=O)c(Nc2cc(CN3CCOCC3)ns2)n1` [Example D-173, 5-[(2R,3R)-3-(4-cyclopropyl-2-fluorobenzamido)-2-methylpiperidin-1-yl]-3-{[3-(morpholin-4-ylmethyl)-1,2-thiazol-5-yl]amino}pyrazine-2-carboxamide], for which the IC50 at BTK-WT is not above 10 nM; at SRC, 10 to 100 nM; at ITK, 100 to 1000 nM; on EGFR it was 100 to 1000 nM; on LCK, 10 to 100 nM.
As to `C[C@@H]1[C@H](NC(=O)c2ccc(S(C)(=O)=O)cc2)CCCN1c1cnc(C(N)=O)c(Nc2ccc(N3CCN(C)CC3)cc2)n1` [Example D-227, 5-[(2R,3R)-3-(4-methanesulfonylbenzamido)-2-methylpiperidin-1-yl]-3-{[4-(4-methylpiperazin-1-yl)phenyl]amino}pyrazine-2-carboxamide], the IC50 on BTK-WT is not above 10 nM; on SRC, not above 10 nM; against ITK, 10 to 100 nM; against EGFR it was 100 to 1000 nM; at LCK it was 10 to 100 nM.
`Cn1cc(Nc2nc(N3C4CCC(NC(=O)c5ccc(C6CC6)cc5)C3CC4)cnc2C(N)=O)cn1` (single isomer, unassigned) [Example D-199, 5-[2-(4-cyclopropylbenzamido)-8-azabicyclo[3.2.1]octan-8-yl]-3-[(1-methyl-1H-pyrazol-4-yl)amino]pyrazine-2-carboxamide]: the IC50 on BTK-WT is 1000 to 10000 nM; on SRC, 1000 to 10000 nM; at ITK, more than 10000 nM; against EGFR, more than 10000 nM; at LCK, more than 10000 nM.
For the compound `C[C@@H]1[C@H](NC(=O)c2ccc3c(c2)OCCO3)CCCN1c1cnc(C(N)=O)c(Nc2cnn(C)c2)n1` [Example D-224, 5-[(2R,3R)-3-(2,3-dihydro-1,4-benzodioxine-6-amido)-2-methylpiperidin-1-yl]-3-[(1-methyl-1H-pyrazol-4-yl)amino]pyrazine-2-carboxamide], the IC50 on BTK-WT was not above 10 nM; on SRC, 10 to 100 nM; at ITK, 100 to 1000 nM; on EGFR, 100 to 1000 nM; at LCK, 100 to 1000 nM.
Regarding `Cc1nc2cc(C(=O)N[C@@H]3CCCN(c4cnc(C(N)=O)c(Nc5cnn(C)c5)n4)[C@@H]3C)ccc2s1` [Example D-242, N-[(2R,3R)-1-{5-carbamoyl-6-[(1-methyl-1H-pyrazol-4-yl)amino]pyrazin-2-yl}-2-methylpiperidin-3-yl]-2-methyl-1,3-benzothiazole-5-carboxamide], the IC50 on BTK-WT was not above 10 nM; against SRC, 10 to 100 nM; against ITK, 100 to 1000 nM; at EGFR it was 1000 to 10000 nM; at LCK, 100 to 1000 nM.
For `C[C@@H]1[C@H](NC(=O)c2ccc(C3(C)COC3)cc2)CCCN1c1cnc(C(N)=O)c(Nc2cnn(C)c2)n1` [Example D-228, 3-[(1-methyl-1H-pyrazol-4-yl)amino]-5-[(2R,3R)-2-methyl-3-[4-(3-methyloxetan-3-yl)benzamido]piperidin-1-yl]pyrazine-2-carboxamide], the IC50 is not above 10 nM at BTK-WT; 10 to 100 nM at SRC; 100 to 1000 nM against ITK; 1000 to 10000 nM against EGFR; 100 to 1000 nM at LCK.
As to `C[C@@H]1[C@H](NC(=O)c2ccc(C(C)(C)C)cc2)CCCN1c1cnc(C(N)=O)c(Nc2ccc(N3CCN(C)CC3)cc2)n1` [Example D-14, 5-[(2R,3R)-3-(4-tert-butylbenzamido)-2-methylpiperidin-1-yl]-3-{[4-(4-methylpiperazin-1-yl)phenyl]amino}pyrazine-2-carboxamide], the IC50 is not above 10 nM on BTK-WT; 10 to 100 nM on SRC; 100 to 1000 nM against ITK; 1000 to 10000 nM at EGFR; 10 to 100 nM on LCK.
